Data as given in US20260266848A1, “COMPOSITIONS AND METHODS FOR DIAGNOSING AND TREATING DYSTONIA” (Duke University, priority 2023, published 2026).

System: DYT-TOR1A MEF EVs
Assay: Quantitative LC-MS/MS proteomics of EVs from drug-treated DYT-TOR1A MEF cultures (ritonavir, salubrinal)
Type: cell-based, mouse

Compound: O=C(/C=C/c1ccccc1)NC(NC(=S)Nc1cccc2cccnc12)C(Cl)(Cl)Cl (stereo not drawn) [salubrinal]
- Acaa1a (ACAA1) EV abundance Cohen's d (DYT + Sal/DYT, 20 μM, 24 h): −0.1738
- Ano6 (ANO6) EV abundance Cohen's d (DYT + Sal/DYT, 20 μM, 24 h): 0.1593
- Ap1b1 (AP1B1) EV abundance Cohen's d (DYT + Sal/DYT, 20 μM, 24 h): −0.5479
- Ar18b (ARL8B) EV abundance Cohen's d (DYT + Sal/DYT, 20 μM, 24 h): −0.5773
- Bzw2 (BZW2) EV abundance Cohen's d (DYT + Sal/DYT, 20 μM, 24 h): 0.2815
- Cryab (CRYAB) EV abundance Cohen's d (DYT + Sal/DYT, 20 μM, 24 h): 1.101
- DIst (DLST) EV abundance Cohen's d (DYT + Sal/DYT, 20 μM, 24 h): −0.973
- Ehd4 (EHD4) EV abundance Cohen's d (DYT + Sal/DYT, 20 μM, 24 h): −0.4717
- Flna (FLNA) EV abundance Cohen's d (DYT + Sal/DYT, 20 μM, 24 h): 0.4828
- Fscn1 (FSCN1) EV abundance Cohen's d (DYT + Sal/DYT, 20 μM, 24 h): 0.7138
- Gart (GART) EV abundance Cohen's d (DYT + Sal/DYT, 20 μM, 24 h): 0.6261
- Hist1h1b (H1-5) EV abundance Cohen's d (DYT + Sal/DYT, 20 μM, 24 h): 0.4792
- Hnrnpc (HNRNPC) EV abundance Cohen's d (DYT + Sal/DYT, 20 μM, 24 h): −0.5111
- Ipo9 (IPO9) EV abundance Cohen's d (DYT + Sal/DYT, 20 μM, 24 h): 0.1652
- Jam3 (JAM3) EV abundance Cohen's d (DYT + Sal/DYT, 20 μM, 24 h): −0.5387
- Lipg (LIPG) EV abundance Cohen's d (DYT + Sal/DYT, 20 μM, 24 h): 0.6163
- Lrrc59 (LRRC59) EV abundance Cohen's d (DYT + Sal/DYT, 20 μM, 24 h): 0.4615
- Mapk3 (MAPK3) EV abundance Cohen's d (DYT + Sal/DYT, 20 μM, 24 h): −0.3187
- Mars (MARS1) EV abundance Cohen's d (DYT + Sal/DYT, 20 μM, 24 h): −0.2456
- Mrc2 (MRC2) EV abundance Cohen's d (DYT + Sal/DYT, 20 μM, 24 h): 0.3301
- Myh9 (MYH9) EV abundance Cohen's d (DYT + Sal/DYT, 20 μM, 24 h): −0.2884
- Ndnf (NDNF) EV abundance Cohen's d (DYT + Sal/DYT, 20 μM, 24 h): −0.4227
- Pcmt1 (PCMT1) EV abundance Cohen's d (DYT + Sal/DYT, 20 μM, 24 h): −0.2746
- Pi4ka (PI4KA) EV abundance Cohen's d (DYT + Sal/DYT, 20 μM, 24 h): 0.7656
- Pitpnb (PITPNB) EV abundance Cohen's d (DYT + Sal/DYT, 20 μM, 24 h): 0.6644
- Prpsap2 (PRPSAP2) EV abundance Cohen's d (DYT + Sal/DYT, 20 μM, 24 h): −1.257
- Psmc5 (PSMC5) EV abundance Cohen's d (DYT + Sal/DYT, 20 μM, 24 h): 1.22
- Psmd12 (PSMD12) EV abundance Cohen's d (DYT + Sal/DYT, 20 μM, 24 h): 1.234
- Psme4 (PSME4) EV abundance Cohen's d (DYT + Sal/DYT, 20 μM, 24 h): −0.3917
- Ptma (PTMA) EV abundance Cohen's d (DYT + Sal/DYT, 20 μM, 24 h): 0.9729
- Rap2b (RAP2B) EV abundance Cohen's d (DYT + Sal/DYT, 20 μM, 24 h): −0.249
- Rbm3 (RBM3) EV abundance Cohen's d (DYT + Sal/DYT, 20 μM, 24 h): 0.2607
- Rhoa (RHOA) EV abundance Cohen's d (DYT + Sal/DYT, 20 μM, 24 h): −0.6572
- Rpl10 (RPL10) EV abundance Cohen's d (DYT + Sal/DYT, 20 μM, 24 h): −0.3597
- Rpl13a (RPL13A) EV abundance Cohen's d (DYT + Sal/DYT, 20 μM, 24 h): −0.4797
- Rps13 (RPS13) EV abundance Cohen's d (DYT + Sal/DYT, 20 μM, 24 h): −0.1409
- Sec31a (SEC31A) EV abundance Cohen's d (DYT + Sal/DYT, 20 μM, 24 h): −0.2355
- Slc2a1 (SLC2A1) EV abundance Cohen's d (DYT + Sal/DYT, 20 μM, 24 h): −0.3172
- Stom (STOM) EV abundance Cohen's d (DYT + Sal/DYT, 20 μM, 24 h): −0.4048
- Tardbp (TARDBP) EV abundance Cohen's d (DYT + Sal/DYT, 20 μM, 24 h): 0.4522
- Tgfb2 (TGFB2) EV abundance Cohen's d (DYT + Sal/DYT, 20 μM, 24 h): −0.3293
- Tln1 (TLN1) EV abundance Cohen's d (DYT + Sal/DYT, 20 μM, 24 h): 0.5665
- Tln2 (TLN2) EV abundance Cohen's d (DYT + Sal/DYT, 20 μM, 24 h): 0.5488
- Tubb1 (TUBB1) EV abundance Cohen's d (DYT + Sal/DYT, 20 μM, 24 h): 0.246
- Usp7 (USP7) EV abundance Cohen's d (DYT + Sal/DYT, 20 μM, 24 h): 1.229
- Wdr26 (WDR26) EV abundance Cohen's d (DYT + Sal/DYT, 20 μM, 24 h): −0.1895
- Zyx (ZYX) EV abundance Cohen's d (DYT + Sal/DYT, 20 μM, 24 h): −0.5814
- Pearson r between ritonavir and salubrinal effects on putative DYT-TOR1A biomarker proteins (DYT-TOR1A MEF EVs, 20 μM each, 24 h): 0.47
- Acaa1a (ACAA1) EV abundance Cohen's d (DYT/DYT + Sal, 20 μM, 24 h): −0.1738
- Ano6 (ANO6) EV abundance Cohen's d (DYT/DYT + Sal, 20 μM, 24 h): 0.1593
- Ap1b1 (AP1B1) EV abundance Cohen's d (DYT/DYT + Sal, 20 μM, 24 h): −0.5479
- Arl8b (ARL8B) EV abundance Cohen's d (DYT/DYT + Sal, 20 μM, 24 h): −0.5773
- Bzw2 (BZW2) EV abundance Cohen's d (DYT/DYT + Sal, 20 μM, 24 h): 0.2815
- Cryab (CRYAB) EV abundance Cohen's d (DYT/DYT + Sal, 20 μM, 24 h): 1.101
- DIst (DLST) EV abundance Cohen's d (DYT/DYT + Sal, 20 μM, 24 h): −0.973
- Ehd4 (EHD4) EV abundance Cohen's d (DYT/DYT + Sal, 20 μM, 24 h): −0.4717
- Flna (FLNA) EV abundance Cohen's d (DYT/DYT + Sal, 20 μM, 24 h): 0.4828
- Fscn1 (FSCN1) EV abundance Cohen's d (DYT/DYT + Sal, 20 μM, 24 h): 0.7138
- Gart (GART) EV abundance Cohen's d (DYT/DYT + Sal, 20 μM, 24 h): 0.6261
- Hist1h1b (H1-5) EV abundance Cohen's d (DYT/DYT + Sal, 20 μM, 24 h): 0.4792
- Hnrnpc (HNRNPC) EV abundance Cohen's d (DYT/DYT + Sal, 20 μM, 24 h): −0.5111
- Ipo9 (IPO9) EV abundance Cohen's d (DYT/DYT + Sal, 20 μM, 24 h): 0.1652
- Jam3 (JAM3) EV abundance Cohen's d (DYT/DYT + Sal, 20 μM, 24 h): −0.5387
- Lipg (LIPG) EV abundance Cohen's d (DYT/DYT + Sal, 20 μM, 24 h): 0.6163
- Lrrc59 (LRRC59) EV abundance Cohen's d (DYT/DYT + Sal, 20 μM, 24 h): 0.4615
- Mapk3 (MAPK3) EV abundance Cohen's d (DYT/DYT + Sal, 20 μM, 24 h): −0.3187
- Mars (MARS1) EV abundance Cohen's d (DYT/DYT + Sal, 20 μM, 24 h): −0.2456
- Mrc2 (MRC2) EV abundance Cohen's d (DYT/DYT + Sal, 20 μM, 24 h): 0.3301
- Myh9 (MYH9) EV abundance Cohen's d (DYT/DYT + Sal, 20 μM, 24 h): −0.2884
- Ndnf (NDNF) EV abundance Cohen's d (DYT/DYT + Sal, 20 μM, 24 h): −0.4227
- Pcmt1 (PCMT1) EV abundance Cohen's d (DYT/DYT + Sal, 20 μM, 24 h): −0.2746
- Pi4ka (PI4KA) EV abundance Cohen's d (DYT/DYT + Sal, 20 μM, 24 h): 0.7656
- Pitpnb (PITPNB) EV abundance Cohen's d (DYT/DYT + Sal, 20 μM, 24 h): 0.6644
- Prpsap2 (PRPSAP2) EV abundance Cohen's d (DYT/DYT + Sal, 20 μM, 24 h): −1.257
- Psmc5 (PSMC5) EV abundance Cohen's d (DYT/DYT + Sal, 20 μM, 24 h): 1.22
- Psmd12 (PSMD12) EV abundance Cohen's d (DYT/DYT + Sal, 20 μM, 24 h): 1.234
- Psme4 (PSME4) EV abundance Cohen's d (DYT/DYT + Sal, 20 μM, 24 h): −0.3917
- Ptma (PTMA) EV abundance Cohen's d (DYT/DYT + Sal, 20 μM, 24 h): 0.9729
- Rap2b (RAP2B) EV abundance Cohen's d (DYT/DYT + Sal, 20 μM, 24 h): −0.249
- Rbm3 (RBM3) EV abundance Cohen's d (DYT/DYT + Sal, 20 μM, 24 h): 0.2607
- Rhoa (RHOA) EV abundance Cohen's d (DYT/DYT + Sal, 20 μM, 24 h): −0.6572
- Rpl10 (RPL10) EV abundance Cohen's d (DYT/DYT + Sal, 20 μM, 24 h): −0.3597
- Rpl13a (RPL13A) EV abundance Cohen's d (DYT/DYT + Sal, 20 μM, 24 h): −0.4797
- Rps13 (RPS13) EV abundance Cohen's d (DYT/DYT + Sal, 20 μM, 24 h): −0.1409
- Sec31a (SEC31A) EV abundance Cohen's d (DYT/DYT + Sal, 20 μM, 24 h): −0.2355
- Slc2a1 (SLC2A1) EV abundance Cohen's d (DYT/DYT + Sal, 20 μM, 24 h): −0.3172
- Stom (STOM) EV abundance Cohen's d (DYT/DYT + Sal, 20 μM, 24 h): −0.4048
- Tardbp (TARDBP) EV abundance Cohen's d (DYT/DYT + Sal, 20 μM, 24 h): 0.4522
- Tgfb2 (TGFB2) EV abundance Cohen's d (DYT/DYT + Sal, 20 μM, 24 h): −0.3293
- Tln1 (TLN1) EV abundance Cohen's d (DYT/DYT + Sal, 20 μM, 24 h): 0.5665
- Tln2 (TLN2) EV abundance Cohen's d (DYT/DYT + Sal, 20 μM, 24 h): 0.5488
- Tubb1 (TUBB1) EV abundance Cohen's d (DYT/DYT + Sal, 20 μM, 24 h): 0.246
- Usp7 (USP7) EV abundance Cohen's d (DYT/DYT + Sal, 20 μM, 24 h): 1.229
- Wdr26 (WDR26) EV abundance Cohen's d (DYT/DYT + Sal, 20 μM, 24 h): −0.1895
- Zyx (ZYX) EV abundance Cohen's d (DYT/DYT + Sal, 20 μM, 24 h): −0.5814
- proteins reduced in both mouse and human EVs whose abundance is modulated toward correction in DYT1 cells (and toward DYT1-like by ISRIB in WT cells) (salubrinal): 4 of the 7
